For test [1], the target named is Cyclin-dependent kinase 5 (Homo sapiens, UniProt Q00535). In kind it is functional.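 Note: CDK5 measured as one member of a kinase profiling panel.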
Test [2] addresses Tyrosine-protein kinase ABL1 (Homo sapiens, UniProt P00519). In kind it is functional.
Test [3] concerns the target T1, Sentrin-specific protease 8 (Homo sapiens, UniProt Q96LD8).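 Note: kinetic enzyme assay of SENP8 cleaving a Nedd8 protein substrate, dose-response confirmation of screening hits.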
T1 sequence (Q96LD8 whole entry): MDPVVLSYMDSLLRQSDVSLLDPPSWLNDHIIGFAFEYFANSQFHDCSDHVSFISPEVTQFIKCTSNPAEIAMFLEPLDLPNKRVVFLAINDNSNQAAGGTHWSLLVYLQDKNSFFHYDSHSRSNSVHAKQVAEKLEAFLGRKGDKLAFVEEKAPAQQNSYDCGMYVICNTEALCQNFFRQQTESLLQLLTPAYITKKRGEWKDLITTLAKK
It counts as functional.

In test [4] the target is T2, Zinc finger protein mex-5 (Caenorhabditis elegans, UniProt Q9XUB2).
T2 sequence (Q9XUB2 whole entry): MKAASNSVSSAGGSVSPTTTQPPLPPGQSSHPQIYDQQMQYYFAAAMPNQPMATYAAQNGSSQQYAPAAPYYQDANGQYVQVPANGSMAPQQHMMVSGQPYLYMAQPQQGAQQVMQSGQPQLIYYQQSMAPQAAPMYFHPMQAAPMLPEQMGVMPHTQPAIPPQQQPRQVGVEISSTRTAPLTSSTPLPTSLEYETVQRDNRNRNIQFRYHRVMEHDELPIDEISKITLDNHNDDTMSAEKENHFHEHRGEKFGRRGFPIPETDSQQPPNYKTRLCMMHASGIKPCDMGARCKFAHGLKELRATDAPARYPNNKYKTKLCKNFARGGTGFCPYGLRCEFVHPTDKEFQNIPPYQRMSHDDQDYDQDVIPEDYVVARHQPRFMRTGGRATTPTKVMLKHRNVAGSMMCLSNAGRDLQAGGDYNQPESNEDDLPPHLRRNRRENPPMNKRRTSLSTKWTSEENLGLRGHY
The experiment in a line: potency of MEX-5 RNA-binding blockers – biochemical, C. elegans, fluorescence polarization, dose response (AID 1960). In general terms: Fluorescence polarisation rises when a labelled molecule tumbles more slowly, as on binding a larger partner.

The target of a further test is T3, Hexokinase HKDC1 (Homo sapiens, UniProt Q2TB90).
T3 sequence (Q2TB90 whole entry): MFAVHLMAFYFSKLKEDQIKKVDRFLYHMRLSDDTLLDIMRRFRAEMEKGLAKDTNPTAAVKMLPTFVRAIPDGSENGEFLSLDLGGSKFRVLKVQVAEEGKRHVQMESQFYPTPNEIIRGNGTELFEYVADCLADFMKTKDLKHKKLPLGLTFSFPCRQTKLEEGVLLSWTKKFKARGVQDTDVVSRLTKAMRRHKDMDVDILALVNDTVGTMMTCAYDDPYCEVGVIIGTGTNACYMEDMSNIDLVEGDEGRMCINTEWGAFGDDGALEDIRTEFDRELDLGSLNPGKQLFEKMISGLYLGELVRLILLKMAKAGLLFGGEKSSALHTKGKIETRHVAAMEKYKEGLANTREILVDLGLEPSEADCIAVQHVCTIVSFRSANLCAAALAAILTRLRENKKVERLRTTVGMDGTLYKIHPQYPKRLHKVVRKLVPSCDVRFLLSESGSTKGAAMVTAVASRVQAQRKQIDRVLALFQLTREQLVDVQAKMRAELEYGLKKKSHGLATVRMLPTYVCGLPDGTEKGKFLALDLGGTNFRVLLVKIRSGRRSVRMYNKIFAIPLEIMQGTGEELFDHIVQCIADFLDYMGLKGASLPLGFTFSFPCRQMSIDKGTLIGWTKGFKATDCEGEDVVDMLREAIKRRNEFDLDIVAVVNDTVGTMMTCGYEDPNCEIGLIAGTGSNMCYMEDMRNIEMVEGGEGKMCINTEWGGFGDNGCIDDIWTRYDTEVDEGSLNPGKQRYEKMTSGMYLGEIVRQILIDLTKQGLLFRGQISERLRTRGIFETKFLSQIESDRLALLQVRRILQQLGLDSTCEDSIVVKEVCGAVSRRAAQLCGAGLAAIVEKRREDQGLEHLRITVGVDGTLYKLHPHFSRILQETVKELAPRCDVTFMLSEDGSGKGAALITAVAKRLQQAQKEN
The test is described as follows: activation of HKDC1 glucose phosphorylation – biochemical, W721R variant, dose response (AID 504730). It counts as functional.

In another test the test system is HeLa. The test is described as follows: Cytotoxicity counterscreen assay for transcriptional activators of heat shock protein 70 (Hsp70). [Related pubchem assays: 1203, 1252 ]. Particulars: Homo sapiens. It counts as functional.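 Note: cells exposed to compound for 16 hours before readout.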
Test [5] concerns the target Cyclin-dependent kinase 2 (Homo sapiens, UniProt P24941). It counts as functional.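 Note: CDK2 measured as one member of a broad kinome profiling panel.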
In test [6] the target is 26S proteasome non-ATPase regulatory subunit 14 (Homo sapiens, UniProt O00487). The experiment in a line: inhibition of proteasome subunit RPN11 – biochemical, fluorescence polarization, uHTS hits, confirmation (AID 602368). In kind it is functional.
Test [7] addresses Intestinal-type alkaline phosphatase (Homo sapiens, UniProt P09923). The experiment in a line: activation of human intestinal alkaline phosphatase – biochemical, luminescent, uHTS hits, set 2, dose response (AID 488817).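 Note: potency of activators that raise enzyme activity.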 In kind it is functional.

Calls of active or inactive are those of the source. A value given as a limit tells only on which side of the number the result lay.

Experimental findings from ChEMBL document CHEMBL1201862, “PubChem BioAssay data set” (2004) are described below.

Cyclin-dependent kinase 5, sequence (Q00535 whole entry): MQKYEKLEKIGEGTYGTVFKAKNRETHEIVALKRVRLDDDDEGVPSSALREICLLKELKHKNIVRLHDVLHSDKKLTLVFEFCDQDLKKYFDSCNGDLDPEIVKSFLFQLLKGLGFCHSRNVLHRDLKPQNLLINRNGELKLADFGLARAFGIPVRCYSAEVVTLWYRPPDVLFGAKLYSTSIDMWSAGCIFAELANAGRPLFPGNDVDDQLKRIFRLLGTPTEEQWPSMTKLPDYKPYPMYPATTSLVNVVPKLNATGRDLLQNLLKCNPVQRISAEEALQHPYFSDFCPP
Tyrosine-protein kinase ABL1, sequence (P00519 whole entry): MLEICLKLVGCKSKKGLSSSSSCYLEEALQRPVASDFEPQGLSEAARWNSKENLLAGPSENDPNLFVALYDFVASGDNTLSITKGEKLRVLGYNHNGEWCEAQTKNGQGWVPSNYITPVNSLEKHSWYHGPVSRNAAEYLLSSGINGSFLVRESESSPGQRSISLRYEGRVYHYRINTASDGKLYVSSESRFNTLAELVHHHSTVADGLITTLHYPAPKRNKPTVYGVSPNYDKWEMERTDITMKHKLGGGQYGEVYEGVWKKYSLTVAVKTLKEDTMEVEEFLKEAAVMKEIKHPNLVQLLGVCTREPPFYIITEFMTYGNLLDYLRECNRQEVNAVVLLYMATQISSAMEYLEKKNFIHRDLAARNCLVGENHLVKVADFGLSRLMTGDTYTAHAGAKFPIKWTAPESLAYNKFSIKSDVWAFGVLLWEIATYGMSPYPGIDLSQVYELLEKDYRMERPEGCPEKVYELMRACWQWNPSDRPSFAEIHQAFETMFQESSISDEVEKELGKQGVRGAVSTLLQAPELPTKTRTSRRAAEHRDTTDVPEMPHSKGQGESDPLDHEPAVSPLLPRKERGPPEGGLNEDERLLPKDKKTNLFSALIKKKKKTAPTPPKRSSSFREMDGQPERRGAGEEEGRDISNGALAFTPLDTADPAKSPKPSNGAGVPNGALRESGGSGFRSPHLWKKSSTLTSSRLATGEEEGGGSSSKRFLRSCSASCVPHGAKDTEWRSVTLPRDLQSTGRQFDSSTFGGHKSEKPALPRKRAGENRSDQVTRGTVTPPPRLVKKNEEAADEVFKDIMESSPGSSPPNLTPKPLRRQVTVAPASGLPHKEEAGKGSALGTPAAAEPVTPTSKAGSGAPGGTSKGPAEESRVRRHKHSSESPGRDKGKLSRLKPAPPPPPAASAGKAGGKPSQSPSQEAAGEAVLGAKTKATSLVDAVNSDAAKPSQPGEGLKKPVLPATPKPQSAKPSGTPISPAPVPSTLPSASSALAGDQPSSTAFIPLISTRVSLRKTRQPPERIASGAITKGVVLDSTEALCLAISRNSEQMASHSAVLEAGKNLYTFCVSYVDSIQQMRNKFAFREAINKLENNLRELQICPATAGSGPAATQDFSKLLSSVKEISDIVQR
26S proteasome non-ATPase regulatory subunit 14, sequence (O00487 whole entry): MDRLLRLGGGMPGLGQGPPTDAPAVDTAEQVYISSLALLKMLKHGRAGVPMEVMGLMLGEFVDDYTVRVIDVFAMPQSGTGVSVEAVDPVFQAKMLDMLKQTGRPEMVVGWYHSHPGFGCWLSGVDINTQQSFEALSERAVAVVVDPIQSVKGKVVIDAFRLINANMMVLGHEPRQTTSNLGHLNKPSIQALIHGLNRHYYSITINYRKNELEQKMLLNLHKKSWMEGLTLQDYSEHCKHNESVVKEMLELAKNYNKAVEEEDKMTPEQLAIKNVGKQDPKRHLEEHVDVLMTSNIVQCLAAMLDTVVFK
Intestinal-type alkaline phosphatase, sequence (P09923 whole entry): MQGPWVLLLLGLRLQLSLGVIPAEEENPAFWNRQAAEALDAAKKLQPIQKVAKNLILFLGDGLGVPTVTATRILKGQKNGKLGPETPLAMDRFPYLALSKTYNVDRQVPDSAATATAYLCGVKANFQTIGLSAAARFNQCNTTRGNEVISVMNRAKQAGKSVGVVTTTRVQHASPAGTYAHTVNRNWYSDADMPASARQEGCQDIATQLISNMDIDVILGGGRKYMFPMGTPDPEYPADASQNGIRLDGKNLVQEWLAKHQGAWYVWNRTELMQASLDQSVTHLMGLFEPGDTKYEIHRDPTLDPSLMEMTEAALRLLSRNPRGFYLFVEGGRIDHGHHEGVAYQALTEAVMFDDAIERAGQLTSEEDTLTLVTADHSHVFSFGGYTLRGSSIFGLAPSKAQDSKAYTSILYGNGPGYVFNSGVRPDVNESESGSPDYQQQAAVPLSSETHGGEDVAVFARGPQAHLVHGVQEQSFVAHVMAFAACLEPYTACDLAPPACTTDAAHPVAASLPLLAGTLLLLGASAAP

Regarding `Nc1c(-c2ccc(NC(=O)Nc3cccc(C(F)(F)F)c3)cc2)cnc2c(-c3ccc4c(c3)OCO4)cnn12`, the Ki in [1] is > 3.16 µM (inactive); in [2], 0.2 µM (active).
On to `Nc1nnc2c(n1)CCCC2`, for which the 50% inhibitory concentration (IC50) in test [3] is 2.98 µM (active). In [4], the EC50 is 59.3 µM (active).
Take `CCN1C(=Cc2sc3ccccc3[n+]2C)C=Cc2cccc(C)c21`: the EC50 at Hexokinase HKDC1 was > 80 µM (inactive). The 50% cytotoxic concentration (CC50) with HeLa is 1.87 µM (active).
As to `O=C(Nc1cc(-c2c[nH]c3ncccc23)cc(Cl)n1)c1ccccc1`, the Ki in test [5] is > 3.16 µM (inactive).
For the compound `O=C(N/N=C/c1c(O)ccc2ccccc12)c1[nH]ncc1Br`, in test [6], the concentration for half-maximal inhibition (IC50) is 24 µM (active). The EC50 in test [7] was 11.7 µM (active).

For orientation: Ki means a dissociation constant, usually derived from enzyme kinetics or from competition with a known ligand. The term IC50 denotes the concentration at which inhibition is half-maximal. Usually EC50 stands for the concentration that produces a half-maximal response. As a reminder, the CC50 is the concentration at which the toxic effect on the cells reaches its halfway point.
